Assay results from patent US10844071B2, “Substituted [1,2,3]triazolo[4,5-d]pyrimidines that lower stress-induced p-tau” (BUCK INSTITUTE FOR RESEARCH ON AGING, priority 2015, dated 2020).
In brackets after ≈: the same amount, converted by molar mass. Entries after “also recorded” stand apart in the source; their conditions may differ. Where a name gives a salt, the structure may show the parent alone. Read-outs that look alike come from different tables or passages of the source. Values belong to the compound of their own block, whether it stands above or below them.

Key:
CRF1 = biological target: T1, CRF1 (Homo sapiens, UniProt P34998); assay: CRF1 binding (Ki)
T1 sequence (P34998 24-415): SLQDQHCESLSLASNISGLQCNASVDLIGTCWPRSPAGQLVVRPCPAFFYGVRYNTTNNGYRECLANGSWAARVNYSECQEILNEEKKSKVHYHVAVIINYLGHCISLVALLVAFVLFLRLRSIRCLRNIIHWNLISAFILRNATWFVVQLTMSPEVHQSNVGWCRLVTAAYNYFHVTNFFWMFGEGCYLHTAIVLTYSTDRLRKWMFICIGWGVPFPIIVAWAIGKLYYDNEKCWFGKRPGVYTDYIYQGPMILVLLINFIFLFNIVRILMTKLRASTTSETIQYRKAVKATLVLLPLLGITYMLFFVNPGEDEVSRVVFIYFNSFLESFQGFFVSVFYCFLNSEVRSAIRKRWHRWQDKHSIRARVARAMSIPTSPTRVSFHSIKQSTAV

SH-SY5Y cells [1] = assay: Primary screen in SH-SY5Y cells (tau, p-tau); format: cell-based; settings: for Tau % / p-Tau (%): Primary (SH-SY5Y)
Procedure: (§1) As described below, in vitro studies were performed using SHSY-5Y cells. These cells are a useful neurological model that differentiate into cells with morphological and biochemical characteristics of mature neurons including mature isoforms of tau.
However, J04 did lower p-tau to the same level as J03 and significant may not have been reached due to low N #.

p-tau = assay: Cortisol-induced (stress-induced) p-tau increase in vitro; format: cell-based
Excerpt: To identify therapeutic candidates, a clinical library of CRF-1R inhibitors to was screened to determine their effects on cortisol-induced p-tau increases. […] J03 was shown specifically to inhibit stress-induced p-tau increases by cortisol in vitro.

J20 mice [2] = assay: J03 pilot study #2 in J20 mice (oral, longer duration); format: in vivo, mouse; settings: oral delivery
Procedure: (§2) Animal experiments were performed using J20 mice. The J20 mouse is a model of for Alzheimer's disease. This model overexpresses human APP with two mutations linked to familial Alzheimer's disease (the APP KM670/671NL (Swedish) and […] (Indiana) mutations).
Based on these promising results, the study was repeated (pilot study #2) with oral delivery and a longer duration.

J20 mice [3] = assay: J17 pilot study in J20 mice (oral, 28 days); format: in vivo, mouse
Procedure: as §2
In a J17 pilot study (#1 pilot study) male and female J20 mice were housed singly and treated with J17 at 10 mkd by oral delivery for 28 days. […]

CRFR2 = biological target: T2, CRFR2 (Homo sapiens, UniProt Q13324); assay: CRFR2 binding (Ki)
T2 sequence (Q13324 1-411): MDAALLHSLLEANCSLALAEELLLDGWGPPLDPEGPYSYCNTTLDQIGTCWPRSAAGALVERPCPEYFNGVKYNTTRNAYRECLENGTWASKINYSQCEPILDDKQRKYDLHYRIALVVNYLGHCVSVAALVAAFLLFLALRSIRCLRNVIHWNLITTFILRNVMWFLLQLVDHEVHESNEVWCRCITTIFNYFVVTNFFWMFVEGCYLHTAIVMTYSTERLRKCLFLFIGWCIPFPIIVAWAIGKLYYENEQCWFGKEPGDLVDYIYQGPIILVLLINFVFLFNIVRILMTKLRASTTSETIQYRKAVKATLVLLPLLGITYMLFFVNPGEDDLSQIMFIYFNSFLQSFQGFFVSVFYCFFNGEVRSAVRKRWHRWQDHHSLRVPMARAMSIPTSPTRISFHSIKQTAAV

[4] = In vivo pharmacokinetics, brain and plasma levels; parameters: species or system mouse
J20 mice [5] = assay: J03 pilot study #1 in J20 mice (SQ, 12 days); format: in vivo, mouse; settings: SQ 10 mkd
Procedure: as §2
In pilot study #1, J20 mice housed singly were treated by SQ injection of J02 in PEG/b-MCD at 10 mkd for 12 days. NOR analysis of object memory (N=5/group) was performed. […] There was no difference in Aβ1-40 (panel B), but a decrease in Aβ1-42 (panel C).

SH-SY5Y cells [6] = assay: Secondary screen in SH-SY5Y cells with CRF stimulation (tau, p-tau, sAPPα); format: cell-based; settings: for sAPPα (%): Secondary (SH-Sy5Y, CRF stimulation)
Procedure: as §1
In an initial study, SHSY-5Y cells were cultured without serum to induce differentiation and increase tau expression. […] The increases were proportional and both were about 50%. J03 (FIG. 4A) reduced the CRF-induced tau increases more than the p-tau increases. The increase in p-tau with CRF was expected, but the increase in tau less predictable as CRF reduces neuronal differentiation (see Chen et al. (2004) Proc. Natl. Acad. Sci. USA, 101(44): 15782-15787), however, it can increase tau accumulation.

PAMPA = format: in vitro ADME; settings: Tertiary
Solubility in DMSO = format: physicochemical
[7] = SH-SY5Y cells, CRF-induced increase
[8] = organic solvent or mixture, read-out: Solubility

SMILES: CCC(COC)n1nnc2c(Nc3ccc(OC)cc3C)nc(C)cc21 (centres unmarked) [Compound J03, N-(4-Methoxy-2-methylphenyl)-1-[1-(methoxymethyl)propyl]-6-methyl-1H-1,2,3-triazolo[4,5-c]pyridine-4-amine]
Ki (CRF1; Tertiary, read-out: CRF1 Ki): 7 nM
Ki (CRF1; read-out: CRF-1 antagonist Ki): ~7.9 nM
Tau % (SH-SY5Y cells [1]): Unchanged
p-tau (SH-SY5Y cells [1]; SH-SY5Y cells, no CRF): decreased
stress-induced p-tau increases by cortisol (p-tau): inhibit
Aβ1-40 (J20 mice [2]): unchanged
Aβ1-40/Aβ1-42 ratio (J20 mice [2]): unchanged
Aβ1-42 (J20 mice [2]): unchanged
novel location assay (J20 mice [2]): performed well
novel object assay (J20 mice [2]): performed well
sAPPα (J20 mice [2]): increased slightly
sAPPα/sAPPβ ratio (J20 mice [2]): slightly increased
sAPPβ (J20 mice [2]): unchanged
p-tau (J20 mice [2]; decrease reached statistical significance): decreased
novel object preference (J20 mice [3]; all mice): increased novel object preference more than 17
sAPPα (J20 mice [3]; both genders): increase
sAPPα/sAPPβ ratio (J20 mice [3]; males): slight increase
activity (total interactions) (J20 mice [3]; not significant): lowered
Ki (CRFR2): > 10000 nM
brain levels ([4]; 10 mk subcutaneous (SQ) injection, J20 mice): low
concentration at 2 h ([4]; J20, mouse, brain, two hours after oral dosing in formulation, first day of pilot study #2): 170 ng/g
brain levels ([4]; end of pilot study #2, oral dosing): about 35 ng/g
Aβ1-40 (J20 mice [5]): no difference
Aβ1-40/1-42 ratio (J20 mice [5]): significantly increased
Aβ1-42 (J20 mice [5]): decrease
P-tau (J20 mice [5]): significantly lower
SAPP (sAPPα levels) (J20 mice [5]): very slightly increased
sAPP/Aβ1-42 ratio (J20 mice [5]): very slightly increased
p-tau/tau ratio (J20 mice [5]; great individual variation): slightly higher
Total tau (J20 mice [5]; largely due to one mouse): decreased
behavior (NOR analysis of object memory) (J20 mice [5]; single housed J20 mice): slight improvement
p-tau/tau ratios (SH-SY5Y cells [6]; 50 and 100 nM CRF, FIG. 28 panel C): highly significantly decreased
sAPPα (SH-SY5Y cells [6]; FIG. 28 panel D, significance for J03 at 100 nM CRF): trend for sAPPα to be higher
p-tau after CRF exposure (SH-SY5Y cells [6]; [7]): reduces; also recorded: decreased
tau after CRF exposure (SH-SY5Y cells [6]; [7]): reduces; also recorded: decreased
sAPPα after CRF exposure (SH-SY5Y cells [6]; SH-SY5Y cells, FIG. 19): lower
sAPPα (%) (SH-SY5Y cells [6]): Unchanged
tau (SH-SY5Y cells [6]; absence of CRF and presence of 100 nM CRF, FIG. 28 panel A): significantly decreased
p-tau (SH-SY5Y cells [6]; presence and absence of CRF, FIG. 28 panel B): significantly reduced
PAMPA (PAMPA): 0.92
solubility (Solubility in DMSO; [8]): ~10 mM (≈ 3550 µg/mL)

SMILES: CCC(COC)n1nnc2c(Nc3ccc(Cl)cc3C)nc(C)nc21 (centres unmarked) [Compound J08]
Ki (CRF1; Tertiary, read-out: CRF1 Ki): 15 nM
Tau % (SH-SY5Y cells [1]): Unchanged
sAPPα (%) (SH-SY5Y cells [6]): Unchanged
PAMPA (PAMPA): 1.27
solubility (Solubility in DMSO; [8]): ~10 mM (≈ 3610 µg/mL)

SMILES: CCC(COC)n1nnc2c(N3CC(C)CC(C)C3)nc(C)nc21 (centres unmarked) [Compound J12]
Ki (CRF1; Tertiary, read-out: CRF1 Ki): > 1000 nM
sAPPα (%) (SH-SY5Y cells [6]): Unchanged
PAMPA (PAMPA): 2.39
solubility (Solubility in DMSO; [8]): ~10 mM (≈ 3320 µg/mL)

SMILES: CCC(COC)n1nnc2c(N3CCCC3)nc(C)nc21 (centres unmarked) [Compound J10]
Tau % (SH-SY5Y cells [1]): Unchanged
p-Tau (%) (SH-SY5Y cells [1]): Unchanged
solubility (Solubility in DMSO; [8]): ~10 mM (≈ 2900 µg/mL)

SMILES: CCC(COC)Nc1nc(C)nc2c1nnn2-c1ccc(OC)cc1C (centres unmarked) [J17 HCl]
Tau % (SH-SY5Y cells [1]): Unchanged
p-Tau (%) (SH-SY5Y cells [1]): Unchanged
solubility (Solubility in DMSO): ≈10 mM

Now from value to compound, other results behind:

Ki (CRF1; Tertiary, read-out: CRF1 Ki): 15 nM
brain levels ([4]; after SQ injection or oral delivery): 55 ng/g
PAMPA (PAMPA): 0.44
solubility (Solubility in DMSO; [8]): ~10 mM (≈ 3560 µg/mL)
SMILES: CCC(COC)n1nnc2c(Nc3ccc(OC)cc3C)nc(C)nc21 (centres unmarked) [Compound J04]
Tau % (SH-SY5Y cells [1]): Unchanged
p-tau (SH-SY5Y cells [1]; SH-SY5Y cells, no CRF): did lower p-tau, although not significantly
tau (SH-SY5Y cells [1]; SH-SY5Y cells, no CRF): did not lower

solubility (Solubility in DMSO; [8]): ~10 mM
SMILES: CCC(COC)N(C)c1nc(C)nc2c1nnn2-c1ccc(OC)cc1C (centres unmarked) [J20 HCl]
Tau % (SH-SY5Y cells [1]): Unchanged

Ki (CRF1; Tertiary, read-out: CRF1 Ki): > 1000 nM
PAMPA (PAMPA): 0.72
solubility (Solubility in DMSO; [8]): ~10 mM (≈ 3480 µg/mL)
SMILES: CCC(COC)n1nnc2c(Nc3ccc(F)cc3F)nc(C)nc21 (centres unmarked) [Compound J07]
